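Briefly, cells in 96-well plates were exposed to five compound concentrations for 48 h, and endpoints were estimated by linear interpolation. TGI denotes the concentration required for complete inhibition of growth.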
Assays:
Test in all cases: NCI anticancer screen, dose series, 48 h
A498 renal = system: A498 renal
COLO 205 colon = system: COLO 205 colon
SF-539 CNS = system: SF-539 CNS
SNB-19 CNS = system: SNB-19 CNS
MOLT-4 leukemia = system: MOLT-4 leukemia
SK-MEL-2 melanoma = system: SK-MEL-2 melanoma
SR leukemia = system: SR leukemia
MDA-MB-231 breast = system: MDA-MB-231 breast
786-0 renal = system: 786-0 renal
M14 melanoma = system: M14 melanoma
EKVX NSCLC = system: EKVX NSCLC
SK-MEL-5 melanoma = system: SK-MEL-5 melanoma
SW-620 colon = system: SW-620 colon
TK-10 renal = system: TK-10 renal
M19-MEL melanoma = system: M19-MEL melanoma
SN12C renal = system: SN12C renal
NCI/ADR-RES ovarian = system: NCI/ADR-RES ovarian
NCI-H460 lung = system: NCI-H460 lung
A549 NSCLC = system: A549 NSCLC
HT29 colon = system: HT29 colon
KM20L2 colon = system: KM20L2 colon
HS 578T breast = system: HS 578T breast
HL-60(TB) leukemia = system: HL-60(TB) leukemia
DMS 114 small cell lung = system: DMS 114 small cell lung
OVCAR-3 ovarian = system: OVCAR-3 ovarian
IGROV1 ovarian = system: IGROV1 ovarian
HCC-2998 colon = system: HCC-2998 colon
DMS 273 small cell lung = system: DMS 273 small cell lung
RPMI-8226 leukemia = system: RPMI-8226 leukemia
LXFL 529 NSCLC = system: LXFL 529 NSCLC
OVCAR-4 ovarian = system: OVCAR-4 ovarian
SK-OV-3 ovarian = system: SK-OV-3 ovarian
KM12 colon = system: KM12 colon
U251 CNS = system: U251 CNS
UO-31 renal = system: UO-31 renal
UACC-257 melanoma = system: UACC-257 melanoma
HOP-18 NSCLC = system: HOP-18 NSCLC
T-47D breast = system: T-47D breast
HOP-92 NSCLC = system: HOP-92 NSCLC
OVCAR-5 ovarian = system: OVCAR-5 ovarian
HOP-62 NSCLC = system: HOP-62 NSCLC
MDA-N = system: MDA-N
LOX IMVI melanoma = system: LOX IMVI melanoma
DU-145 prostate = system: DU-145 prostate
MCF7 breast = system: MCF7 breast
MDA-MB-435 = system: MDA-MB-435
UACC-62 melanoma = system: UACC-62 melanoma
CAKI-1 renal = system: CAKI-1 renal
RXF 393 renal = system: RXF 393 renal
NCI-H23 lung = system: NCI-H23 lung
SF-268 CNS = system: SF-268 CNS
SF-295 CNS = system: SF-295 CNS
SNB-78 CNS = system: SNB-78 CNS
SK-MEL-28 melanoma = system: SK-MEL-28 melanoma
OVCAR-8 ovarian = system: OVCAR-8 ovarian
HCT-15 colon = system: HCT-15 colon
ACHN renal = system: ACHN renal
SNB-75 CNS = system: SNB-75 CNS
K-562 leukemia = system: K-562 leukemia
PC-3 prostate = system: PC-3 prostate
HCT-116 colon = system: HCT-116 colon
NCI-H226 lung = system: NCI-H226 lung
CCRF-CEM leukemia = system: CCRF-CEM leukemia
NCI-H522 lung = system: NCI-H522 lung
MALME-3M melanoma = system: MALME-3M melanoma
XF 498 CNS = system: XF 498 CNS
DLD-1 colon = system: DLD-1 colon
RXF-631 renal = system: RXF-631 renal

COc1ccc(Nc2nnc(-c3nsc4ccccc34)s2)cc1
TGI (A498 renal): 15.8 µM
TGI (COLO 205 colon): > 100 µM
TGI (SF-539 CNS): > 100 µM
TGI (SNB-19 CNS): > 100 µM
TGI (MOLT-4 leukemia): > 100 µM
TGI (SK-MEL-2 melanoma): > 100 µM
TGI (SR leukemia): > 100 µM
TGI (MDA-MB-231 breast): > 100 µM
TGI (786-0 renal): 9.77 µM
TGI (M14 melanoma): > 100 µM
TGI (EKVX NSCLC): > 100 µM
TGI (SK-MEL-5 melanoma): > 100 µM
TGI (SW-620 colon): > 100 µM
TGI (TK-10 renal): > 88.5 µM
TGI (M19-MEL melanoma): > 100 µM
TGI (SN12C renal): > 100 µM
TGI (NCI/ADR-RES ovarian): > 100 µM
TGI (NCI-H460 lung): > 65.9 µM
TGI (A549 NSCLC): > 100 µM
TGI (HT29 colon): > 100 µM
TGI (KM20L2 colon): > 100 µM
TGI (HS 578T breast): > 100 µM
TGI (HL-60(TB) leukemia): > 100 µM
TGI (DMS 114 small cell lung): > 100 µM
TGI (OVCAR-3 ovarian): > 100 µM
TGI (IGROV1 ovarian): > 100 µM
TGI (HCC-2998 colon): > 100 µM
TGI (DMS 273 small cell lung): > 100 µM
TGI (RPMI-8226 leukemia): > 100 µM
TGI (LXFL 529 NSCLC): > 100 µM
TGI (OVCAR-4 ovarian): 6.73 µM
TGI (SK-OV-3 ovarian): 19 µM
TGI (KM12 colon): > 100 µM
TGI (U251 CNS): > 100 µM
TGI (UO-31 renal): 35 µM
TGI (UACC-257 melanoma): > 100 µM
TGI (HOP-18 NSCLC): 2.66 µM
TGI (T-47D breast): > 100 µM
TGI (HOP-92 NSCLC): 41.8 µM
TGI (OVCAR-5 ovarian): > 100 µM
TGI (HOP-62 NSCLC): 36.1 µM
TGI (MDA-N): > 100 µM
TGI (LOX IMVI melanoma): > 100 µM
TGI (DU-145 prostate): > 100 µM
TGI (MCF7 breast): > 100 µM
TGI (MDA-MB-435): > 100 µM
TGI (UACC-62 melanoma): > 100 µM
TGI (CAKI-1 renal): > 100 µM
TGI (RXF 393 renal): > 78.9 µM
TGI (NCI-H23 lung): > 100 µM
TGI (SF-268 CNS): > 100 µM
TGI (SF-295 CNS): > 100 µM
TGI (SNB-78 CNS): > 100 µM
TGI (SK-MEL-28 melanoma): > 100 µM
TGI (OVCAR-8 ovarian): > 100 µM
TGI (HCT-15 colon): > 100 µM
TGI (ACHN renal): > 100 µM
TGI (SNB-75 CNS): 17.3 µM
TGI (K-562 leukemia): > 100 µM
TGI (PC-3 prostate): > 100 µM
TGI (HCT-116 colon): 45.2 µM
TGI (NCI-H226 lung): > 100 µM
TGI (CCRF-CEM leukemia): > 100 µM

COc1ccc2n[se]nc2c1
TGI (COLO 205 colon): > 100 µM
TGI (SF-539 CNS): 54.3 µM
TGI (SNB-19 CNS): > 100 µM
TGI (MOLT-4 leukemia): > 100 µM
TGI (SK-MEL-2 melanoma): > 100 µM
TGI (786-0 renal): > 100 µM
TGI (M14 melanoma): > 100 µM
TGI (EKVX NSCLC): > 100 µM
TGI (SK-MEL-5 melanoma): > 100 µM
TGI (SW-620 colon): > 100 µM
TGI (TK-10 renal): > 100 µM
TGI (NCI-H522 lung): > 100 µM
TGI (SN12C renal): > 100 µM
TGI (A549 NSCLC): > 100 µM
TGI (HT29 colon): > 100 µM
TGI (KM20L2 colon): > 100 µM
TGI (HL-60(TB) leukemia): > 100 µM
TGI (DMS 114 small cell lung): > 100 µM
TGI (IGROV1 ovarian): > 100 µM
TGI (HCC-2998 colon): > 100 µM
TGI (DMS 273 small cell lung): > 100 µM
TGI (RPMI-8226 leukemia): > 100 µM
TGI (LXFL 529 NSCLC): > 100 µM
TGI (OVCAR-4 ovarian): > 100 µM
TGI (SK-OV-3 ovarian): > 100 µM
TGI (KM12 colon): > 100 µM
TGI (U251 CNS): > 100 µM
TGI (UO-31 renal): > 100 µM
TGI (UACC-257 melanoma): > 100 µM
TGI (OVCAR-5 ovarian): > 100 µM
TGI (MALME-3M melanoma): > 100 µM
TGI (LOX IMVI melanoma): > 100 µM
TGI (UACC-62 melanoma): > 100 µM
TGI (CAKI-1 renal): > 100 µM
TGI (XF 498 CNS): > 100 µM
TGI (RXF 393 renal): > 100 µM
TGI (NCI-H23 lung): > 100 µM
TGI (SF-268 CNS): > 100 µM
TGI (SF-295 CNS): > 100 µM
TGI (SNB-78 CNS): > 100 µM
TGI (SK-MEL-28 melanoma): > 100 µM
TGI (DLD-1 colon): > 100 µM
TGI (OVCAR-8 ovarian): > 100 µM
TGI (HCT-15 colon): > 100 µM
TGI (ACHN renal): > 100 µM
TGI (RXF-631 renal): > 100 µM
TGI (SNB-75 CNS): > 100 µM
TGI (K-562 leukemia): > 100 µM
TGI (CCRF-CEM leukemia): > 100 µM
